Assay results: patent publication US12022844B2, “Nutritional composition, food/drink composition using nutritional composition, and modified milk powder using nutritional composition” (priority 2018, dated 2024)

Legend:
[1] = tested on: Bifidobacterium animalis subspecies lactis MCC-525; test: Mix-culturing with Bifidobacterium bifidum by HMO as sugar source, quantitative PCR; type: cell-based; settings: for Proliferation rate (number of bacteria after mix-culturing for 8 h/number of bacteria after single bacterial culturing): MCC-525 mix-cultured with Bifidobacterium bifidum (NITE BP-02429), sugar source 2%, Table 8; for Proliferation rate of MCC-525 (mix-cultured bacteria after 8 h/single bacterial culturing 8 h): Table 10; for number of proliferating bacteria of MCC-525 in combination with seven strains of Bifidobacterium bifidum compared to single bacterium culture: summary of Table 10
Method: (§1) A10% solution of glucose (manufactured by Nakarai Tesque Inc.), and 2′-FL ((≥95%) Funakoshi, available from sigma), and LNnT (manufactured by ELICITYL) as examples of HMOs was prepared with ion exchanged water, and was subjected to sterile filtration using Millex-GV (SLGV033RS).
(§2) Lactobacilli MRS Broth (BD) (0.05% L-Cysteine Hydrochloride for Bacteria of the genus Bifidobacterium) was added to strains of Table 1 below (bacteria belonging to Bifidobacterium bifidum) and Table 2 below. After a sterilization treatment, 3% of the bacterial solution was inoculated, and anaerobically cultured (pre-pre cultured) at 37° C. for 16 h.
(§3) The following day, 1% glucose was added to a modified BL agar medium (“Studies on Bifidobacteria” by Tomotari Mitsuoka, p. 306, Japan Bifidus Foundation, issued in 1994) noted in Table 3, for preparation. After a sterilization treatment, 3% of the pre-pre cultured bacterial solution was inoculated, and anaerobically pre-cultured (pre-cultured) at 37° C. for 12 h.
(§4) The pre-cultured bacterial solution was collected and washed once with a sterile physiological saline solution. Then, mass-up was performed to an equal volume with the modified BL agar medium (“Studies on Bifidobacteria” by Tomotari Mitsuoka, p. 306, Japan Bifidus Foundation, issued in 1994) noted in Table 3 to prepare a suspended bacterial solution.
(§5) The modified BL agar medium (“Studies on Bifidobacteria” by Tomotari Mitsuoka, p. 306, Japan Bifidus Foundation, issued in 1994) noted in Table 3 was prepared at a capacity of 60%, and was subjected to an autoclave sterilization treatment. Then, 40% of each sugar solution prepared in (1) was aseptically added so as to prepare a medium with a sugar concentration of 4%.
(§6) The medium prepared in the above (3) was dispensed at a capacity that is half the capacity for aseptic culturing in a 96-well plate, and each of the bacterial solutions of strains of bacteria belonging to Bifidobacterium bifidum in Table 1 and probiotics having a low ability to assimilate human milk oligosaccharides in Table 2, which was prepared in the above (2), was dispensed at a remaining […] capacity into the medium prepared in the above (3) such that the bacterial solution had 12%. Then, a final sugar concentration was set to 2%. The plate into which the bacterial solution was dispensed was anaerobically cultured at 37° C. for 8 h.
(§7) OD650 was measured from each well in the plates in the above (4) and the above (5) before (0 h) culturing and after (8 h) culturing, by MICROPLATE READER SH-9000 (manufactured by CORONA ELECTRIC). After turbidity measurement, microbial cells were collected, and DNA extraction was performed. After the DNA extraction, the number of proliferating bacteria of Bifidobacteria/lactobacilli was analyzed by using the bacterial species-specific primer noted in Table 4, by a quantitative PCR method (see “Structural analysis of intestinal flora”—analysis of bacterial flora in human feces using quantitative PCR—by Kouichi Watanabe, Enterobacteriological journal, 20:35-42, 2006).
(§8) It was decided to culture Bifidobacterium bifidum (NITE BP-02429) in which availability of 2′-FL or LNnT was found as described above, in combination with strains in Table 2, which cannot use 2′-FL or LNnT. Bifidobacterium bifidum (NITE BP-02429) and the strains in Table 2, which cannot use 2′-FL or LNnT, were mix-cultured by 2′-FL or LNnT as a sugar source, and after culturing for 8 h, the proliferation rate of the number of bacteria of each strain (proliferation rate=the number of bacteria after mix-culturing for 8 h/the number of bacteria after single bacterial culturing) was measured by a quantitative PCR method using each strain-specific oligonucleotide primer noted in Table 4, for the strain in Table 2.
Seven strains of Bifidobacterium bifidum in Table 1 and Bifidobacterium animalis subspecies lactis MCC-525 which cannot use 2′-FL or LNnT were mix-cultured by 2′-FL or LNnT as a sugar source. […]

[2] = tested on: Bifidobacterium peseudocatenulatum ATCC27919; test: as above; type: cell-based, Bifidobacterium pseudocatenulatum; settings: ATCC 27919^T mix-cultured with Bifidobacterium bifidum (NITE BP-02429), sugar source 2%, Table 8
Method: as §1
as §2, with “h. […]” for “h.”
OD650 was measured from each well in the plates in the above (4) and the above (5) before (0 h) culturing and after (8 h) culturing, by MICROPLATE READER SH-9000 (manufactured by CORONA ELECTRIC). […] After the DNA extraction, the number of proliferating bacteria of Bifidobacteria/lactobacilli was analyzed by using the bacterial species-specific primer noted in Table 4, by a quantitative PCR method (see “Structural analysis of intestinal flora”—analysis of bacterial flora in human feces using quantitative PCR—by Kouichi Watanabe, Enterobacteriological journal, 20:35-42, 2006). […]

[3] = tested on: strains in Table 2 except for Bifidobacterium infantis; test: Availability of HMOs by probiotics (single culturing, summary); type: cell-based; settings: single bacterial culturing, 8 h; summary of Tables 6 and 7
Method: (§9) The medium prepared in the above (3) was dispensed at a capacity that is half the capacity for culturing in a 96-well plate, and the bacterial solution prepared in the above (2) was dispensed at a remaining half capacity such that the bacterial solution had 6%. Then, a final sugar concentration was set to 2%. The plate into which the bacterial solution was dispensed was anaerobically cultured at 37° C. for 8 h.
as §7
(§10) Regarding strains in Table 2, each strain was cultured as a single bacterium by 2′-FL or LNnT (HMOs) as a sugar source, and OD650 was measured. The results for 2′-FL are noted in Table 6 below, and the results for LNnT are noted in Table 7 below.

[4] = tested on: Bifidobacterium bifidum NITE BP-02429; test: Single bacterial culturing with HMO as sugar source, OD650; type: cell-based; settings: 8 h
Method: as §1, §2, §3, §4
The modified BL agar medium (“Studies on Bifidobacteria” by Tomotari Mitsuoka, p. 306, Japan Bifidus Foundation, issued in 1994) noted in Table 3 was prepared at a capacity of 60%, and was subjected to an autoclave sterilization treatment. Then, 40% of each sugar solution prepared in (1) was aseptically added so as to prepare a medium with a sugar concentration of 4%. […]
OD650 was measured from each well in the plates in the above (4) and the above (5) before (0 h) culturing and after (8 h) culturing, by MICROPLATE READER SH-9000 (manufactured by CORONA ELECTRIC). […] After the DNA extraction, the number of proliferating bacteria of Bifidobacteria/lactobacilli was analyzed by using the bacterial species-specific primer noted in Table 4, by a quantitative PCR method (see “Structural analysis of intestinal flora”—analysis of bacterial flora in human feces using quantitative PCR—by Kouichi Watanabe, Enterobacteriological journal, 20:35-42, 2006).
Regarding bacteria belonging to Bifidobacterium bifidum in Table 1, each strain was cultured as a single bacterium by 2′-FL or LNnT (HMOs) as a sugar source, and OD650 was measured. […]
Regarding strains in Table 2, each strain was cultured as a single bacterium by 2′-FL or LNnT (HMOs) as a sugar source, and OD650 was measured. […]

[5] = tested on: Lactobacillus paracasei ATCC25302; test: as above; type: cell-based; settings: ATCC 25302^T, sugar source 2%, 8 h
Method: as §1, §2, §3, §4, §5, §9, §7, §10

[6] = tested on: Lactobacillus gasseri ATCC 33323; test: Mix-culturing with Bifidobacterium bifidum by HMO as sugar source, quantitative PCR; type: cell-based; settings: for Proliferation rate (number of bacteria after mix-culturing for 8 h/number of bacteria after single bacterial culturing): ATCC 33323^T mix-cultured with Bifidobacterium bifidum (NITE BP-02429), sugar source 2%, Table 8; for proliferation rate of Lactobacillus gasseri ATCC 33323^T (mix-cultured bacteria after 8 h/single bacterial culturing 8 h): Table 11
Method: as §1, §2, §3, §4, §5, §6, §7, §8
Seven strains of Bifidobacterium bifidum in Table 1 and Lactobacillus gasseri ATCC 33323^T which cannot use 2′-FL were mix-cultured by 2′-FL as a sugar source. […]

[7] = tested on: Bifidobacterium bifidum NITE BP-02433; test: Single bacterial culturing with HMO as sugar source, OD650; type: cell-based; settings: sugar source 2%, anaerobic 37° C., 8 h, Table 5
Method: as §1, §2, §3, §4, §5, §9, §7
(§11) Regarding bacteria belonging to Bifidobacterium bifidum in Table 1, each strain was cultured as a single bacterium by 2′-FL or LNnT (HMOs) as a sugar source, and OD650 was measured. Table 5 illustrates OD650 increase values after seven strains of the bacteria belonging to Bifidobacterium bifidum in Table 1 were cultured for 8 h by 2′-FL or LNnT as a sugar source.

[8] = tested on: Bifidobacterium bifidum ATCC29521; test: as above; type: cell-based; settings: ATCC 29521^T, sugar source 2%, anaerobic 37° C., 8 h, Table 5
Method: as §1, §2, §3, §4, §5, §9, §7, §11

[9] = mix-cultured with Bifidobacterium bifidum ATCC 29521^T
[10] = mix-cultured with Bifidobacterium bifidum NITE BP-1252
[11] = mix-cultured with Bifidobacterium bifidum NITE BP-02429
[12] = mix-cultured with Bifidobacterium bifidum NITE BP-02431
[13] = mix-cultured with Bifidobacterium bifidum NITE BP-02432
[14] = mix-cultured with Bifidobacterium bifidum NITE BP-02433
[15] = mix-cultured with Bifidobacterium bifidum NITE P-02648
[16] = NITE BP-02429, sugar source 2%, anaerobic 37° C., Table 5

Compound	Proliferation rate (number of bacteria after mix-culturing for 8 h/number of bacteria after single bacterial culturing) [1]	Proliferation rate of MCC-525 (mix-cultured bacteria after 8 h/single bacterial culturing 8 h) [1, 9]	Proliferation rate of MCC-525 (mix-cultured bacteria after 8 h/single bacterial culturing 8 h) [1, 10]	Proliferation rate of MCC-525 (mix-cultured bacteria after 8 h/single bacterial culturing 8 h) [1, 11]	Proliferation rate of MCC-525 (mix-cultured bacteria after 8 h/single bacterial culturing 8 h) [1, 12]	Proliferation rate of MCC-525 (mix-cultured bacteria after 8 h/single bacterial culturing 8 h) [1, 13]	Proliferation rate of MCC-525 (mix-cultured bacteria after 8 h/single bacterial culturing 8 h) [1, 14]	Proliferation rate of MCC-525 (mix-cultured bacteria after 8 h/single bacterial culturing 8 h) [1, 15]	number of proliferating bacteria of MCC-525 in combination with seven strains of Bifidobacterium bifidum compared to single bacterium culture [1]	Proliferation rate (number of bacteria after mix-culturing for 8 h/number of bacteria after single bacterial culturing) [2]	assimilability by strains in Table 2 except for Bifidobacterium infantis [3]	OD650 increase value [4, 16]	Proliferation rate (number of bacteria after mix-culturing for 8 h/number of bacteria after single bacterial culturing) [6]	OD650 increase value [7]	OD650 increase value [8]	further results
2′-fucosyllactose [2′-FL]	2.62	2.01	2.06	4.85	3.82	2.45	3.67	4.35	promoted	3.08	had no assimilability in 2′-FL or LNnT (HMOs), or a low assimilability	0.167	3.70	0.431	0.060	OD650 increase value ([4]; NITE BP-02429(PC), sugar source 2%, Table 6): 0.135; OD650 increase value ([5]; Table 6): −0.011; proliferation rate of Lactobacillus gasseri ATCC 33323^T (mix-cultured bacteria after 8 h/single bacterial culturing 8 h) [6, 9]: 1.45; proliferation rate of Lactobacillus gasseri ATCC 33323^T (mix-cultured bacteria after 8 h/single bacterial culturing 8 h) [6, 10]: 3.99; proliferation rate of Lactobacillus gasseri ATCC 33323^T (mix-cultured bacteria after 8 h/single bacterial culturing 8 h) [6, 11]: 2.33; proliferation rate of Lactobacillus gasseri ATCC 33323^T (mix-cultured bacteria after 8 h/single bacterial culturing 8 h) [6, 12]: 4.42; proliferation rate of Lactobacillus gasseri ATCC 33323^T (mix-cultured bacteria after 8 h/single bacterial culturing 8 h) [6, 13]: 3.99; proliferation rate of Lactobacillus gasseri ATCC 33323^T (mix-cultured bacteria after 8 h/single bacterial culturing 8 h) [6, 14]: 3.64; proliferation rate of Lactobacillus gasseri ATCC 33323^T (mix-cultured bacteria after 8 h/single bacterial culturing 8 h) [6, 15]: 2.88; number of proliferating bacteria of Lactobacillus gasseri ATCC33323T in combination with seven strains of Bifidobacterium bifidum compared to single bacterium culture ([6]; summary of Table 11): promoted
CC(=O)N[C@H]1[C@H](O[C@H]2[C@@H](O)[C@@H](CO)O[C@@H](O[C@H]3[C@H](O)[C@@H](O)C(O)O[C@@H]3CO)[C@@H]2O)O[C@H](CO)[C@@H](O[C@@H]2O[C@H](CO)[C@H](O)[C@H](O)[C@H]2O)[C@@H]1O (mixture of isomers) [LNnT, lacto-N-neotetraose]	1.41	3.87	19.98	4.17	3.58	4.21	2.39	6.03	promoted	1.55	had no assimilability in 2′-FL or LNnT (HMOs), or a low assimilability	0.608	1.53	0.370	0.008	proliferation promotion effect of the number of bacteria of MCC-525 ([1]; in the combination with Bifidobacterium bifidum (NITE BP-1252)): significantly higher; OD650 increase value ([4]; NITE BP-02429 (PC: positive control), sugar source 2%, Table 7): 0.608; OD650 increase value ([5]; Table 7): 0.052
